Test results from patent US20190091248A1, “AGENT FOR INCREASING INTESTINAL BUTYRIC ACID AND PROLIFERATION AGENT FOR BUTYRIC ACID-PRODUCING BACTERIA” (B FOOD SCIENCE CO., LTD., priority 2016, published 2019).

Assays:
[1] = test system: short chain fatty acids in cecal contents; test: Amount of intestinal short chain fatty acid in cecal contents upon intake of 1-kestose (GC/MS); assay type: in vivo, SD rats; conditions: for concentration of butyric acid in cecal contents: 30 days ad libitum; for amount of butyric acid in cecal contents: 30 days, calculated from concentration, Group A 781.14 μg
Method: (1) Breeding of Rats with Giving Oral Intake of 1-Kestose
The feeds containing 0, 0.5, 1.0, 2.5, and 5% by mass of 1-kestose were prepared by CLEA Japan, Inc. on commission. The composition of the feeds is described below. 40 SD rats (Japan SLC, Inc.) were divided into 5 groups of 8 animals and designated as Groups A to E. The rats were maintained for 30 days with ad libitum feeding of the feed without 1-kestose to Group A and of the ones with 1-kestose to Groups B to E, respectively. The rats were maintained under conditions at 23±1° C. in temperature with 12 hours of light periods (from 8:00 to 20:00) and 12 hours of dark periods (from 20:00 to 8:00).
[Composition (in % by mass) of feeds] Cornstarch 39.7486, milk casein 20, pregelatinized cornstarch 13.2, granulated sugar and/or 1-kestose (99% by mass in purity, B Food Science Co., Ltd.) 10, purified soybean oil 7, cellulose powder 5, mineral mixture 3.5, vitamin mixture 1, L-cystine 0.3, choline bitartrate 0.25, tert-butylhydroquinone 0.0014.
The rats in each group described in Example 1 (1) were dissected and their ceca were extracted. The contents of the ceca were collected and weighed. The concentrations of short chain fatty acids (butyric acid, propionic acid, isobutyric acid, acetic acid, isovaleric acid, and valeric acid) in the cecal contents were measured with a gas chromatography-mass spectrometer (GC/MS). The amounts of the short chain fatty acids in the cecal contents were calculated from the results of the measurement of the short chain fatty acid concentrations. Subsequently, the means of concentrations and amounts of short chain fatty acids for each group were calculated and shown in bar graphs. The results are illustrated in FIGS. 1 to 3.

[2] = test system: Clostridium cluster-XIVa and Clostridium cluster-XIVb (a group of butyric acid-producing bacteria); test: Real-time PCR of 16S rDNA copy number in cecal contents upon intake of 1-kestose; assay type: in vivo, SD rats
Method: (§1) The amounts of the following 4 microorganisms in the cecal contents of rats in Groups A and E described in Example 1 (1) were measured by real-time PCR.
2. Clostridium cluster-XIVa and Clostridium cluster-XIVb (a group of butyric acid-producing bacteria),
(§2) Specifically, the cecal contents of Groups A and E were disrupted with the bead beating system “FastPrep FP100A” (MP Biomedicals, LLC.). Subsequently, genomic DNA was extracted with the nucleic acid extraction instrument “Magtration® System 12GC” and its exclusive reagent “MagDEA® DNA 200” (Precision System Science Co., Ltd.) according to the instructions. Using this genomic DNA as a template, the real-time PCR was performed with primers specific for the 16S rDNAs of the aforementioned 4 microorganisms, the real-time PCR reagent “SYBR® Premix Ex Taq II (Tli RNaseH Plus)” (Takara), and the real-time PCR device “Rotor-Gene Q” (QIAGEN N.V.) and the copy numbers of the 16S rDNA from each microorganism per 1 g of the cecal contents were determined. The means and standard deviation of the copy numbers were calculated for each group and illustrated in bar graphs.
(§3) The sequences of the primers specific for 16S rDNA of each microorganism are listed below.
(§4) The standard curve was made from the result of real-time PCR for each microorganism under the same conditions using a plasmid DNA in which a part of the following sequence is incorporated as a template.
2. Clostridium clusters-XIVa and -XIVb (a group of butyric acid-producing bacteria); 16S rDNA sequence (SEQ ID NO: 10) of Clostridium clostridioforme JCM1291T

[3] = test system: The genus Bifidobacterium; test: as above; assay type: in vivo, SD rats; conditions: Group E
Method: as §1
1. The genus Bifidobacterium,
as §2, §3, §4
1. […]

The genus Lactobacillus = test: as above; assay type: in vivo, SD rats
Method: as §1
3. The genus Lactobacillus
as §2, §3, §4
3. […]

Akkermansia muciniphila = test: as above; assay type: in vivo, SD rats
Method: as §1
4. Akkermansia muciniphila
as §2, §3, §4
4. […]

[4] = Food processing and ingredients, Vol. 49, No. 12, p. 9, 2014; cited from earlier work
[5] = test system: ulcerative colitis model rats induced by dextran sulfate sodium (DSS); conditions: injection into the intestine; cited from earlier work
[6] = test system: fatty degeneration and inflammation in the liver by the intake of high-fat meals; conditions: oral administration, 0.02 g/kg body weight per day; cited from earlier work
[7] = test system: childhood diabetes model rat; conditions: intraperitoneal, 500 mg/kg of body weight per day (in terms of the dose of sodium butyrate); cited from earlier work
[8] = test system: LIM1215, human colorectal cancer cells; conditions: final concentration of 1 mmol/L; cited from earlier work
[9] = test system: obesity induced by high-fat meals; conditions: cited from earlier work
[10] = Group B: feed with 0.5% by mass 1-kestose
[11] = Group C: feed with 1.0% by mass 1-kestose
[12] = Group D: feed with 2.5% by mass 1-kestose
[13] = Group E: feed with 5% by mass 1-kestose
[14] = Groups B, C, D and E, cecal contents

Question: For OC[C@H]1O[C@@](CO)(OC[C@@]2(O[C@H]3O[C@H](CO)[C@@H](O)[C@H](O)[C@H]3O)O[C@H](CO)[C@@H](O)[C@@H]2O)[C@@H](O)[C@@H]1O [1-kestose], which “increase of butyric acid amount relative to Group A” value [1, 10] is on record?
Answer: The value was “approximately 1.4 times of that in Group A”.

Question: And the “increase of butyric acid concentration relative to Group A” value [1, 10]?
Answer: The value was “approximately 1.4 times of that in Group A”.

Question: What about the “concentration of butyric acid in cecal contents” value (“concentration of butyric acid” below) ([1]; Group B: feed with 0.5% by mass 1-kestose, daily intake 0.27 g/kg body weight, Group A (no 1-kestose) 205.86 μg/g) of the same molecule?
Answer: The value was 288.09 µg/g.

Question: And the “amount of butyric acid in cecal contents” value [1, 10]?
Answer: Its value is 1069.37 µg.

Question: And the “increase of butyric acid amount relative to Group A” value [1, 11]?
Answer: Its value is “approximately 1.4 times of that in Group A”.

Question: And the “increase of butyric acid concentration relative to Group A” value [1, 11]?
Answer: The value was “approximately 1.5 times of that in Group A”.

Question: And the “concentration of butyric acid” value ([1]; Group C: feed with 1.0% by mass 1-kestose, Group A 205.86 μg/g)?
Answer: The value was 314.59 µg/g.

Question: What about the “amount of butyric acid in cecal contents” value [1, 11] of the same molecule?
Answer: The value was 1107.92 µg.

Question: And the “increase of butyric acid amount relative to Group A” value [1, 12]?
Answer: Its value is “approximately 3.6 times of that in Group A”.

Question: What about the “increase of butyric acid concentration relative to Group A” value [1, 12] of the same molecule?
Answer: The value was “approximately 3.7 times of that in Group A”.

Question: And the “concentration of butyric acid” value ([1]; Group D: feed with 2.5% by mass 1-kestose, Group A 205.86 μg/g)?
Answer: The value was 754.17 µg/g.

Question: What about the “amount of butyric acid in cecal contents” value [1, 12] of the same molecule?
Answer: Its value is 2891.65 µg.

Question: What about the “increase of butyric acid amount relative to Group A” value [1, 13] of the same molecule?
Answer: Its value is “approximately 14.5 times of that in Group A”.

Question: What about the “increase of butyric acid concentration relative to Group A” value [1, 13] of the same molecule?
Answer: Its value is “approximately 10 times of that in Group A”.

Question: What about the “concentration of butyric acid” value ([1]; Group E: feed with 5% by mass 1-kestose, 1.34 g/kg body weight, Group A 205.86 μg/g) of the same molecule?
Answer: The value was 2005.26 µg/g.

Question: And the “amount of butyric acid in cecal contents” value [1, 13]?
Answer: The value was 11943.88 µg.

Question: What about the “concentrations and amounts of acetic acid in comparison with Group A” value [1, 14] of the same molecule?
Answer: The value was “significantly increased”.

Question: And the “concentrations and amounts of isobutyric acid in comparison with Group A” value [1, 14]?
Answer: The value was “significantly decreased”.

Question: What about the “concentrations and amounts of isovaleric acid in comparison with Group A” value [1, 14] of the same molecule?
Answer: The value was “not significantly different”.

Question: What about the “concentrations and amounts of propionic acid in comparison with Group A” value [1, 14] of the same molecule?
Answer: Its value is “not significantly different”.

Question: And the “concentrations and amounts of valeric acid in comparison with Group A” value [1, 14]?
Answer: Its value is “significantly decreased”.

Question: What about the “concentrations and amounts of butyric acid in comparison with Group A” value ([1]; any of Groups B to E (0.5 to 5% by mass 1-kestose in feed)) of the same molecule?
Answer: The value was “markedly increased”.

Question: What about the “copy number of 16S rDNA from the group of butyric acid-producing bacteria relative to Group A” value ([2]; Group E) of the same molecule?
Answer: Its value is “approximately 5 times of that in Group A”.

Question: What about the “copy number of 16S rDNA from the group of butyric acid-producing bacteria, comparison with Group A in words” value ([2]; Group E) of the same molecule?
Answer: Its value is “significantly increased”.

Question: And the “copy number of 16S rDNA from Clostridium cluster XIV (a group of butyric acid-producing bacteria)” value ([2]; Group E (5% by mass 1-kestose in feed, 30 days), Group A 5071250000)?
Answer: The value was 25287500000 per 1 g of the cecal contents.

Question: What about the “copy number of 16S rDNA from the genus Bifidobacterium in comparison with Group A” value [3] of the same molecule?
Answer: Its value is “significantly increased”.

Question: What about the “copy number of 16S rDNA from Lactobacillus, Group E versus Group A” value (The genus Lactobacillus) of the same molecule?
Answer: The value was “did not have significant difference”.

Question: What about the “copy number of 16S rDNA from Akkermansia muciniphila, Group E versus Group A” value (Akkermansia muciniphila) of the same molecule?
Answer: The value was “did not have significant difference”.

Question: And the “toxicity in mutagenicity, acute toxicity, subchronic toxicity, and chronic toxicity tests” value [4]?
Answer: Its value is “no toxicity”.

Question: Which inflammatory repair effect [5] does the source give for CCCC(=O)O [butyric acid] here?
Answer: Its inflammatory repair effect is “significant inflammatory repair effect”.

Question: What about the “fatty degeneration and inflammation in the liver by the intake of high-fat meals” value [6] of the same molecule?
Answer: Its value is “suppress”.

Question: What about the “values of AST, ALT, cholesterol, LDL in blood, neutral fat and fasting blood sugar levels, and insulin resistance index (HOMA-IR)” value [6] of the same molecule?
Answer: Its value is “normalize”.

Question: What about the “function and proliferation of β cells” value [7] of the same molecule?
Answer: The value was “improve”.

Question: What about the glucose homeostasis [7] of the same molecule?
Answer: The glucose homeostasis was “improve”.

Question: What about the β cell death [7] of the same molecule?
Answer: Its β cell death is “decrease”.

Question: And the proliferation rate [8]?
Answer: The proliferation rate was “decrease”.

Question: And the proliferation time [8]?
Answer: Its proliferation time is “extend”.

Question: What about the “body weight and the body fat percentage” value ([9]; oral, 5 g/kg body weight per day (in terms of sodium butyrate), mice in which obesity has been induced by high-fat meals) of the same molecule?
Answer: The value was “reduce”.

Question: What about the “weight gain and increase of the body fat percentage by eating of high-fat meals” value ([9]; oral, 5 g/kg body weight per day (in terms of sodium butyrate), mice that are not obese) of the same molecule?
Answer: The value was “suppress”.

Question: Which “increase of body weight and increase of the body fat percentage” value ([9]; mice fed on high-fat meals into which 5% by mass is mixed) does the source give for CCCC(=O)[O-].[Na+] [sodium butyrate] here?
Answer: The value was “suppressed”.
